According to patent US8076348B2, “Acylguanidine derivative or salt thereof” (Astellas Pharma Inc., priority 2005, dated 2011):

Columns and labels:
[1] = biological target: T1, 5-HT2B receptor (Homo sapiens, UniProt P41595); experiment: 5-HT2B receptor binding test; set-up: expressed in transfected cells; host or cells: HEK293-EBNA cells (membrane sample); details: [3H] Mesulergine, human 5-HT2B receptor expressing HEK293-EBNA cell membrane
Description: Test Method (1) 5-HT2B Receptor Binding Test
(i) Membrane Sample Preparation
(§1) Cultured human 5-HT2B receptor-expressing HEK293-EBNA cells were washed with a phosphate buffer (PBS)(−). The cells were peeled off using a scraper in the presence of PBS(−), and the cells were recovered by a centrifugal treatment (1,000 rpm, 10 min, 4° C.). In the presence of 5 mM tris-hydrochloric acid (Tris-HCl) (pH 7.4) buffer, these were homogenized using a homogenizer (registered trademark: Polytron (PTA 10-TS)) and subjected to a centrifugal treatment (40,000×g, 10 min, 4° C.). In the presence of 50 mM Tris-HCl (pH 7.4) buffer, these were suspended using a glass-Teflon (registered trademark) homogenizer. By carrying out a centrifugal treatment (40,000×g, 10 min, 4° C.), these were suspended in 50 mM Tris-HCl (pH 7.4) and stored at −80° C.
(§2) (ii) Receptor Binding Test
(§3) A total volume of 500 μl containing 50 mM Tris-HCl, 4-mM-CaCl2 (pH 7.4) buffer, the human 5-HT2B receptor expressing HEK293-EBNA cell membrane sample and a radio ligand [^3H] Mesulergine (3.1 TBq/mmol); was incubated at 25° C. for 1 hour. The compound was dissolved in 100% DMSO and diluted to respective concentrations. Nonspecific binding was regarded as the binding quantity in the presence of 1 μM ritanserin, and a result of subtracting the nonspecific binding quantity from the total binding quantity was regarded as the specific binding quantity. By adding 4 ml of 50 mM Tris-HCl buffer (pH 7.4), filtered under a reduced pressure trough a GF/B glass filter, and the filter was washed with the same buffer (4 ml×3). The glass filter was soaked in 5 ml of a liquid scintillator (trade name: Aquasol-2), and the radioactivity quantity was measured using a liquid scintillation counter.

[2] = system: Hartley male guinea pigs; experiment: Preventive effect in guinea pig migraine model (5-HT-induced dura mater protein leakage); format: in vivo; details: for minimum amount showing the maximum drug efficacy / dose at which the leaked protein quantity-reducing action was shown / lowering of leaked protein quantity to the standard value when the dose was increased: intravenous; for dose at which the leaked protein quantity-reducing action was shown: 5-HT-induced leakage; for lowering of leaked protein quantity to the standard value when the dose was increased: RS-127445 3 to 10 mg/kg, SB-269970 10 to 30 mg/kg
Description: Test Method (5) Preventive Effect in Guinea Pig Migraine Model
This test system evaluates the migraine-preventive effect by measuring the amount of this leaked protein in the presence of a compound to be tested and was carried out by partially modifying the method described by Rachel A. Spokes and Vicki C. Middlefell in “European Journal of Pharmacology”, (Holland), 1995, vol. 281, p. 75-79.
Hartley male guinea pigs (250 to 350 g) were anesthetized by the intraperitoneal administration (i.p.) of urethane (1.5 g/kg). By applying a simple canulation to a latent vein, 50 mg/kg of a fluorescent protein (FITC-BSA) was intravenously administered (i.v.) and, 5 minutes thereafter, physiological saline or 1 μmol/ml/kg of 5-HT was intravenously administered. Perfusion was carried out with physiological saline 15 minutes thereafter and blood was washed out. […] By detaching the skull, the dura mater was extracted and incubated in an Eppendorf tube at 37° C. for 16 hours in the presence of physiological saline adjusted to pH 11. By carrying out a centrifugal operation, the supernatant was dispensed into a plate. The fluorescence intensity was measured using a fluorescence plate reader (excitation wavelength 485 nm, […] 530 nm). By weighing the dura mater weight, the fluorescence intensity per mg dura mater protein was calculated.
The values of fluorescence intensity measured at the time of the administration and non-administration of each compound are shown in FIG. 4 to FIG. 7.

[3] = biological target: T2, human 5-HT7 receptor (Homo sapiens, UniProt P34969); experiment: 5-HT7 receptor binding test; details: [3H] 5-HT, human 5-HT7 receptor expressing CHO cell membrane
T2 construct: expressed in transfected cells; host or cells: CHO cells (membrane sample)
T2 sequence (P34969 whole entry): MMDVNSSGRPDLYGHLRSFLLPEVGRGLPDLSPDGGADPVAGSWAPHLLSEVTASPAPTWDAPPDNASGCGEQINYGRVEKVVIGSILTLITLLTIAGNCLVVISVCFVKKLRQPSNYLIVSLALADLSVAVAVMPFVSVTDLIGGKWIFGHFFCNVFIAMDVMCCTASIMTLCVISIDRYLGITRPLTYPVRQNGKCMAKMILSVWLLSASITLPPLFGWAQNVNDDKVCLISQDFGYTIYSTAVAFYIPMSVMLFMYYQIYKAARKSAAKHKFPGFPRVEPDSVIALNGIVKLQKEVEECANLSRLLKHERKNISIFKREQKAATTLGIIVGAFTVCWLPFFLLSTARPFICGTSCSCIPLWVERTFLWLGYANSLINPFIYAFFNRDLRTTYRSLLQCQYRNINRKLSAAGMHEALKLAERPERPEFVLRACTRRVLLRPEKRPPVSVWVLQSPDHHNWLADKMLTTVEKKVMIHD
Description: Test Method (2) 5-HT7 Receptor Binding Test (i) Membrane Sample Preparation
as §1, with “5-HT7 receptor expressing CHO” for “5-HT2B receptor-expressing HEK293-EBNA”, “PBS(−).” for “with a phosphate buffer (PBS)(−).”, “Tris-HCl” for “tris-hydrochloric acid (Tris-HCl)”
as §2
as §3, with “Tris-HCl, 4 mM CaCl2” for “Tris-HCl, 4-mM-CaCl2”, “human 5-HT7” for “human 5-HT2B”, “expressing CHO” for “expressing HEK293-EBNA”, “[^3H] 5-HT (3.40 TBq/mmol)” for “[^3H] Mesulergine (3.1 TBq/mmol);”, “of 10” for “of 1”, “μM metergoline,” for “μM ritanserin,”

[4] = system: male Wistar rats; experiment: Inhibitory effect for defecation at the time of confined stress loading (rat confined stress defecation model); format: in vivo; details: for action to suppress defecation (number of feces): 10 mg/kg p.o., compound used independently, feces counted 1 hour after stress loading, 10 mg/kg; for number of feces, significant difference in comparison with the non-administration group: rat, 1, 3 and 10 mg/kg administration groups, N=10
Description: Test Method (4) Inhibitory Effect for Defecation at the Time of Confined Stress Loading
The IBS-treating effect of the compound (I) of the present invention was evaluated using a method in which a confined stress is applied to rats and the evacuation quantity is measured (cf. “The Journal of Pharmacology Experimental Therapeutics”, (USA), 1992, vol. 261, p. 297-303).
An agent to be tested was administered to male Wistar rats (body weight 250 to 320 g, 10 animals for each group) and a confined stress was applied thereto 30 minutes thereafter. A confining cage (trade name: KN-468, 265 mm in width×95 mm in length×200 mm in height, Natsume Seisakusho, Tokyo) was used in the confined stress loading, and the number of feces during 1 hour after the stress loading was counted.

[5] = biological target: T1, 5-HT2B receptor; details: literature value; cited from earlier work

T1 sequence (P41595 whole entry): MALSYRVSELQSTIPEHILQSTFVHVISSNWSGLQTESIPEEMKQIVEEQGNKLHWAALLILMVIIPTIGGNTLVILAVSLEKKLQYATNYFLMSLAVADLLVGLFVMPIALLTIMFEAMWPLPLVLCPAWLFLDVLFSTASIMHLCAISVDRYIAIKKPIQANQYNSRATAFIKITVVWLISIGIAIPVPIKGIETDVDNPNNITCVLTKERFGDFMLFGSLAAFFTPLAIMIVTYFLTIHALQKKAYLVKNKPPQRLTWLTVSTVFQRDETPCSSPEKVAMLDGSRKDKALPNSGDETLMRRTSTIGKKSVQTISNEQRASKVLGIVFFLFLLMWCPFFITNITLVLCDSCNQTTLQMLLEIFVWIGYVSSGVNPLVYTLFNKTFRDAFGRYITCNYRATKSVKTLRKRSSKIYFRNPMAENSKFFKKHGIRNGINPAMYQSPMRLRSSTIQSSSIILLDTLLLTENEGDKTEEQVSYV

SMILES: CC(C)n1c2ccccc2c2ccc(C(=O)N=C(N)N)cc21 [Example 1, N-(diaminomethylene)-9-isopropyl-9H-carbazole-2-carboxamide]
- Ki [1]: 4.6 nM
- leaked protein quantity ([2]; 30 mg/kg oral administration): almost completely suppressed the leaked protein quantity
- Ki [3]: 0.64 nM

SMILES: CC(C)N1c2ccccc2Oc2ccc(C(=O)N=C(N)N)cc21 [Example 66, N-(diaminomethylene)-10-isopropyl-10H-phenoxazine-2-carboxamide]
- Ki [1]: 0.26 nM
- Ki [3]: 2.6 nM

SMILES: NC(N)=NC(=O)c1ccc2c(c1)C1(SCCS1)c1ccsc1-2 [Example 81, N-(diaminomethylene)spiro[1,3-dithiolan-2,4′-indeno[1,2-b]thiophene]-6′-carboxamide]
- Ki [1]: 0.83 nM
- Ki [3]: 0.78 nM

SMILES: COC1(C)c2cc(C(=O)N=C(N)N)ccc2-c2sccc21 (centres unmarked) [Example 83]
- Ki [1]: 1.5 nM
- Ki [3]: 0.99 nM

SMILES: NC(N)=NC(=O)c1ccc2c(c1)C1(CCCO1)c1ccsc1-2 (centres unmarked) [Example 84, N-(diaminomethylene)-4,5-dihydro-3H-spiro[furan-2,4′-indeno[1,2-b]thiophene]-6′-carboxamide]
- Ki [1]: 1.3 nM
- ED50 ([4]; po, rat, p.o., read-out: ED50 (50% effective dose), suppressing action on defecation): 0.72 mg/kg
- Ki [3]: 2.5 nM

SMILES: CC(C)c1cc(-c2ccc(F)c3ccccc23)nc(N)n1 [RS-127445, 2-amino-4-(4-fluoronaphth-1-yl)-6-isopropylpyrimidine]
- minimum amount showing the maximum drug efficacy [2]: 3 mg/kg
- dose at which the leaked protein quantity-reducing action was shown [2]: 3 mg/kg
- lowering of leaked protein quantity to the standard value when the dose was increased [2]: did not lower it to the standard value
- action to suppress defecation (number of feces) ([4]; rat): did not show the action to suppress defecation
- number of feces, significant difference in comparison with the non-administration group [4]: Significant difference was not found
- 5-HT2B receptor-selective against 5-HT1A, 5-HT1B, 5-HT2A, 5-HT2C, 5-HT3, 5-HT6, 5-HT7, α1, M1, D2 and the like receptors [5]: ≥ 1000 times

SMILES: CC1CCN(CC[C@H]2CCCN2S(=O)(=O)c2cccc(O)c2)CC1 [SB-269970, (R)-3-(2-(2-(4-methylpiperidine-1-yl)ethyl)pyrrolidine-1-sulfonyl)phenol]
- minimum amount showing the maximum drug efficacy [2]: 10 mg/kg
- dose at which the leaked protein quantity-reducing action was shown [2]: 10 mg/kg
- lowering of leaked protein quantity to the standard value when the dose was increased [2]: did not lower the leaked protein quantity to the standard value
- action to suppress defecation (number of feces) ([4]; rat): did not show the action to suppress defecation
- number of feces, significant difference in comparison with the non-administration group [4]: Significant difference was not found
